For 3 compounds, IC50 results are on record in patent US5380834A, “Immuno-suppressive agent” (Ishihara Sangyo Kaisha Ltd., priority 1992, dated 1995).

Each structure is given as a SMILES string. ≈ marks a conversion by molar mass, not a printed value.

Format in all cases: cell-based, BALB/c mouse
The subject of experiment [1] is murine bone mallow cells. Description: Effects on the murine bone mallow cells (proliferation, 3H-TdR uptake). The following applies: Mus musculus, bone marrow cells; 20% L929 culture supernatant, 48 hours, 3H-TdR uptake; Tables 12-15; read-out: IC50 value, c (murine bone mallow cells).
In experiment [2] the test system is IgGl antibody production from murine spleen B cells. Description: Effects on the IgGl antibody production from murine spleen cells (LPS + IL4). As to conditions: Mus musculus, B-cell, 168 h; spleen B cells, LPS 10 μg/ml, IL4 100 U/ml, 7 days, enzyme-immunoassay; read-out: IC50 value, IgGl antibody production.
The test system of experiment [3] is IgE antibody production from murine spleen B cells. Description: Effects on the IgE antibody production from murine spleen cells (LPS + IL4). As to conditions: Mus musculus, B-cell, 168 h; spleen B cells, LPS 10 μg/ml, IL4 100 U/ml, 7 days, enzyme-immunoassay; read-out: IC50 value, IgE antibody production.

`O[C@H]1C=C[C@H]2CO[C@@H]1O2` [Compound 1, 1,6-anhydro-3,4-dideoxy-β-D-threo-hex-3-enopyranose]: the results for the IC50 in experiment [1], in experiment [2] and in experiment [3] were 69 µg/mL (≈ 539 µM), 37 µg/mL and 32 µg/mL, respectively.
The like results for `O=C(O[C@H]1C=C[C@H]2CO[C@@H]1O2)c1ccco1` [Compound 17, 1,6-anhydro-3,4-dideoxy-2-O-(2-furancarbonyl)-β-D-threo-hex-3-enopyranose] were, in that order, 510 µg/mL (≈ 2300 µM), 1 µg/mL and 3.2 µg/mL.
`C#C[C@]1(O)C=C[C@H]2CO[C@@H]1O2` [Compound 29]: the IC50 in experiment [1] was over 1000 µg/mL; in experiment [2], 380 µg/mL; in experiment [3], 320 µg/mL.
